Test results as given in US12435083B2, “Cyclopropyl-(hetero)aryl-substituted ethylsulphonyl-pyridine derivatives” (BOEHRINGER INGELHEIM VETMEDICA GMBH, priority 2021, dated 2025).
Where two headings read alike, the source gives them in different places.

Assays:
Myzus persicae = test: Insecticidal test on Myzus persicae (foliar application on potted Chinese cabbage); details: 144 h, read-out: control efficacy level (control rate), Myzus persicae
Description: Example 14: Insecticidal Test on Myzus persicae
The compounds of formula (I) of the present invention or salts thereof were separately dispersed in water and diluted to 500 ppm. Chinese cabbage plants were planted in plastic pots (diameter: 8 cm, height: 8 cm). Aphids (Myzus persicae) were propagated on the plants and then the number of surviving aphids was counted. The dispersion was applied to the foliage of the potted plants. After the plants were air dried, these were kept in a greenhouse. 6 days after the application, the number of the alive insects was counted on the plants. The control rate was calculated according to the following formula and the control efficacy was evaluated according to the following criteria. Control rate (%)=100−{(T×Ca)/(Ta×C)}×100 • Ta: the number of alive insects before the foliar application in a treated plot • T: the number of alive insects after the foliar application in a treated plot • Ca: the number of alive insects before the foliar application in an untreated plot • C: the number of alive insects after the foliar application in an untreated plot • A: the control rate is 100% • B: the control rate is 90 to 99% • C: the control rate is 80 to 89% • D: the control rate is 50 to 79%

[1] = tested on: Spodoptera litura 2nd-instar larvae; test: Insecticidal test on Spodoptera litura (cabbage leaf dip); details: foliar, 192 h, 8 days after inoculation, read-out: activity level (corrected mortality rate), Spodoptera litura
Description: Example 11: Insecticidal Test on Spodoptera litura
The compounds of formula (I) of the present invention or salts thereof were separately dispersed in water and diluted to 500 ppm. Cabbage leaves were dipped in the dispersion for about 30 seconds. After air dried, the leaves were placed in a plastic Petri dish with a diameter of 9 cm and inoculated with ten 2nd-instar larvae of Spodoptera litura, after which the dish was closed and then allowed to stand in a room at 25° C. 8 days after the inoculation, the numbers of the dead and alive insects were counted. The corrected mortality rate was calculated according to the following formula and the insecticidal activity was evaluated according to the following criteria. Corrected mortality rate (%)=100×(Survival rate in an untreated plot−Survival rate in a treated plot)/Survival rate in an untreated plot • A: the corrected mortality rate is 100% • B: the corrected mortality rate is 90 to 99% • C: the corrected mortality rate is 80 to 89% • D: the corrected mortality rate is 50 to 79%

[2] = tested on: Laodelphax striatellus 3rd-instar nymphs; test: Insecticidal test on Laodelphax striatellus (rice seedling dip); details: 192 h, 500 ppm, seedling dip, 8 days after inoculation, read-out: activity level (corrected mortality rate), Laodelphax striatellus
Description: Example 13: Insecticidal Test on Laodelphax striatellus
The compounds of formula (I) of the present invention or salts thereof were separately dispersed in water and diluted to 500 ppm. Rice plant seedlings were dipped in the dispersion for about 30 seconds. After air dried, the seedlings were put into a separate glass test tube and inoculated with ten 3rd-instar nymphs of Laodelphax striatellus and then the glass test tube was kept in a room at 25° C. 8 days after the inoculation, the numbers of the dead and alive insects were counted. The corrected mortality rate was calculated according to the following formula and the insecticidal activity was evaluated according to the following criteria. Corrected mortality rate (%)=100×(Survival rate in an untreated plot−Survival rate in a treated plot)/Survival rate in an untreated plot • A: the corrected mortality rate is 100% • B: the corrected mortality rate is 90 to 99% • C: the corrected mortality rate is 80 to 89% • D: the corrected mortality rate is 50 to 79%

Aedes aegypti L1 larvae = test: Activity against larvae of Aedes aegypti (L1 larvae, 384-well, image-based mortality); details: read-out: EC50 (percentage of mortality, A. aegypti L1 larvae)
Description: Example 3: Screening Method to Test Activity of Compounds of Formula (I) Against Larvae of Aedes aegypti
Eight A. aegypti L1 larvae in a total volume of 64 μL water were added to 384-well microplates containing compounds formulated in 100% DMSO. The plates were incubated for 48 h at 27° C. Individual well images were acquired and analyzed using a pipeline to quantitatively assess the amount of larvae biomass accumulating at the bottom of the well. The efficacy of a compound at a given dose is expressed as “percentage of mortality” and determined by comparison to average biomass descriptors of positive and negative control wells containing 1.0 μM Fipronil or DMSO only, respectively. Dose response assay were conducted to determine an EC50 value.

Plutella xylostella = test: Insecticidal test on Plutella xylostella (Chinese cabbage seedling dip); details: 144 h, 500 ppm, seedling dip, 6 days after dip treatment, read-out: activity level (corrected mortality rate), Plutella xylostella
Summary of the method: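 Compounds dispersed in water at 500 ppm; Chinese cabbage seedlings bearing eggs laid by released adults over 2 days were dipped ~30 s, air-dried and kept at 25° C. Dead and live insects counted 6 days later; corrected mortality versus untreated plot scored A (100%), B (90–99%), C (80–89%), D (50–79%).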

[3] = tested on: adult Ctenocephalides felis fleas; test: Contact activity against adult Ctenocephalides felis (treated surface, motility by machine vision, 24 h); details: treated surface, 24h, read-out: EC80 (% motility reduction, adult C. felis, contact)
Description: Example 7: Screening Method to Test Contact Activity of Compounds of Formula (I) Against Adult Ctenocephalides felis

[4] = tested on: adult Ctenocephalides felis fleas; test: Ingestion activity (flea membrane feeding, blood feeding) against adult Ctenocephalides felis; details: Ctenocephalides felis
[5] = tested on: adult Rhipicephalus sanguineus ticks; test: Contact activity against adult Rhipicephalus sanguineus (coated vial, mortality at 48 h); details: Rhipicephalus sanguineus
Summary of the method: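 Compound in acetone/0.02% Triton X-100 coated onto glass vial walls and cap filter paper; after drying, ten adult ticks added per vial. Held at 24° C, 95% relative humidity, 12 h light/dark cycle. Mortality scored visually at 48 hours; EC50 derived from a dose-response series.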

[6] = tested on: nymphs of Dermacentor variabilis ticks; test: Oral rat-tick efficacy against nymphs of Dermacentor variabilis ticks; format: in vivo; details: rats, oral gavage 10 mg/kg on Day 0, tick count on Day 3
Description: Example 10: Comparison of Oral Rat-Tick Efficacy Data for Selected Specific Compounds of Formula (I) Against Nymphs of Dermacentor variabilis Ticks
On Day −1, rats were sedated, fitted with an Elizabethan collar, and infested with approximately 35 nymphal stage D. variabilis ticks. On Day 0, each rat was treated via oral gavage with the appropriate formulation of placebo, positive control, or test compound at the appropriate dose. On Day 3, all rats were euthanized, and ticks were removed, counted, and disposed of. In Table 2 efficacy is expressed in % mortality compared to negative controls containing compound vehicle only.

[7] = 500 ppm, foliar application, 6 days after application
[8] = bovine blood, 24h post treatment, read-out: EC80 (% motility reduction, adult C. felis, ingestion via membrane feeding)
[9] = 48 hours post-treatment, coated vial, read-out: EC50 (percentage mortality, adult R. sanguineus, contact)
[10] = contact assay, >100 μM = not active at the top concentration, read-out: R. sanguineus contact activity EC50
[11] = 24 h, flea membrane feeding (ingestion, blood feeding) assay, EC80, read-out: C. felis membrane feeding (ingestion/blood feeding) activity EC80

| SMILES | pest or weed control at 500 ppm (Myzus persicae; foliar) | mortality at 500 ppm [1] | mortality at 500 ppm [2] | EC50 (Aedes aegypti L1 larvae; 48 h) | mortality at 500 ppm (Plutella xylostella) | pest or weed control at 500 ppm (Myzus persicae; [7]) | EC50 (Aedes aegypti L1 larvae; 48 h at 27° C., 384-well) | EC80 [3] | EC80 [4, 8] | EC50 [5, 9] | EC50 [5, 10] | EC80 [4, 11] | EC50 ([5]; 48 h, read-out: EC50 (percentage mortality, adult R. sanguineus, contact)) | EC80 ([4]; 24 h, read-out: EC80 (% motility reduction, adult C. felis, ingestion via membrane feeding)) | Observed efficacy (% mortality compared to negative controls) [6] |
| --- | --- | --- | --- | --- | --- | --- | --- | --- | --- | --- | --- | --- | --- | --- | --- |
| CCS(=O)(=O)c1cc(-c2cccc(C3CC3)n2)cnc1-c1nc2cc(C(F)(F)C(F)(F)F)nnc2n1C [Compound 3, 6-cyclopropyl-5′-(ethanesulfonyl)-6′-[7-methyl-3-(1,1,2,2,2-pentafluoroethyl)imidazo[4,5-c]pyridazin-6-yl]-2,3′-bipyridine] | 100% | 100% | 100% | < 0.04 µM | 100% |  |  |  |  |  |  |  |  |  |  |
| CCS(=O)(=O)c1cc(-c2ccc(C3CC3)cc2)cnc1-c1nc2cc(C(F)(F)F)cnc2n1C [Compound 41, 5-(4-cyclopropylphenyl)-3-(ethanesulfonyl)-2-[3-methyl-6-(trifluoromethyl)imidazo[4,5-b]pyridin-2-yl]pyridine] |  | 100% | 100% |  | 100% | 100% | < 0.04 µM | 1 to 10 µM |  |  |  |  |  |  |  |
| CCS(=O)(=O)c1cc(-c2ccc(C3CC3)cc2)cnc1-c1nc2cc(S(=O)(=O)C(F)(F)F)ccc2n1C [Compound 42, 2-[5-(4-cyclopropylphenyl)-3-(ethanesulfonyl)pyridin-2-yl]-1-methyl-5-trifluoromethanesulfonyl-1,3-benzodiazole] |  | 100% |  |  | 100% |  | < 0.04 µM | 1 to 10 µM | 1 to 10 µM |  |  |  |  |  |  |
| CCS(=O)(=O)c1cc(-c2ccc(C3CC3)cc2)cnc1-c1nc2cc([S+]([O-])C(F)(F)F)ccc2n1C (stereo not drawn) [Compound 43, 2-[5-(4-cyclopropylphenyl)-3-(ethanesulfonyl)pyridin-2-yl]-1-methyl-5-trifluoromethanesulfinyl-1,3-benzodiazole] |  | 100% |  |  | 100% | 100% | < 0.04 µM | 1 to 10 µM | 1 to 10 µM |  |  |  |  |  |  |
| CCS(=O)(=O)c1cc(-c2ccc(C3CC3)cc2)cnc1-c1nc2cc(C(F)(F)F)n(C3CC3)c(=O)c2n1C [Compound 45, 5-cyclopropyl-2-[5-(4-cyclopropylphenyl)-3-(ethanesulfonyl)pyridin-2-yl]-3-methyl-6-(trifluoromethyl)imidazo[4,5-c]pyridin-4-one] |  | 100% | 100% |  | 100% | 100% | < 0.04 µM |  | 1 to 10 µM | < 10 µM | < 10 µM | 1 to 10 µM |  |  |  |
| CCS(=O)(=O)c1cc(-c2ccc(C3CC3)cc2)cnc1-c1cc2n(CC3CC3)cc(C(F)(F)F)cc-2n1 [Compound 96, 2-[4-(cyclopropylmethyl)-6-(trifluoromethyl)pyrrolo[3,2-b]pyridin-2-yl]-5-(4-cyclopropylphenyl)-3-(ethanesulfonyl)pyridine] |  | 100% | 100% |  | 100% | 100% |  |  |  | < 10 µM | 10 to 100 µM | 1 to 10 µM |  |  |  |
| CCS(=O)(=O)c1cc(-c2ccc(C3(C#N)CC3)cc2)cnc1-c1nc2cc(C(F)(F)C(F)(F)F)ncc2n1C [Compound 115, 1-[4-[5-(ethanesulfonyl)-6-[3-methyl-6-(1,1,2,2,2-pentafluoroethyl)imidazo[4,5-c]pyridin-2-yl]pyridin-3-yl]phenyl]cyclopropane-1-carbonitrile] |  | 100% | 100% |  | 100% | 100% | < 0.04 µM | < 1 µM | < 1 µM | 10 to 100 µM | 10 to 100 µM | < 1 µM |  |  |  |
| CCS(=O)(=O)c1cc(-c2cc(C3CC3)ccn2)cnc1-c1nc2cc(C(F)(F)C(F)(F)F)cnc2n1C [Compound 182, 4-cyclopropyl-5′-(ethanesulfonyl)-6′-[3-methyl-6-(1,1,2,2,2-pentafluoroethyl)-3H-imidazo[4,5-b]pyridin-2-yl]-2,3′-bipyridine] | 100% | 100% | 100% |  | 100% |  |  |  |  |  |  |  | 10 to 100 µM | < 1 µM |  |
| CCS(=O)(=O)c1cc(-c2ccc(C3CC3)cc2)cnc1-c1nc2cc(C(C)(F)F)cnc2n1C [Compound 194, 5-(4-cyclopropylphenyl)-2-[6-(1,1-difluoroethyl)-3-methylimidazo[4,5-b]pyridin-2-yl]-3-(ethanesulfonyl)pyridine] |  | 100% | 100% |  | 100% | 100% |  |  |  | 10 to 100 µM |  |  |  |  |  |
| CCS(=O)(=O)c1cc(-c2ccc(C3(C#N)CC3)cc2)cnc1-c1nc2cc(C(F)(F)F)cn(CC(F)F)c-2c1F [compound 67] |  |  |  |  |  |  |  |  |  |  |  |  |  |  | >95% |
| CCS(=O)(=O)c1cc(-c2cccc(C3CC3)n2)cnc1-c1nc2cc(C(F)(F)C(F)(F)F)cnc2n1C [compound 112] |  | 100% |  |  | 100% | 100% | < 0.04 µM | < 1 µM | 1 to 10 µM | 10 to 100 µM | 10 to 100 µM | 1 to 10 µM |  |  |  |
| CCS(=O)(=O)c1cc(-c2ccc(C3(C#N)CC3)cc2)cnc1-c1ccc(OCC(F)(F)C(F)(F)F)cn1 [compound 128] |  | 100% | 100% |  | 100% | 100% |  | 1 to 10 µM |  | < 10 µM |  |  |  |  |  |
